From ChEMBL document CHEMBL1201862, “PubChem BioAssay data set” (2004)
Calls of active or inactive are those of the source.

Assays:
[1] = luciferase reporter signal suppression in cells – H4 neuroglioma cells, luminescence, dose response (AID 1990); type: functional, cell-based
[2] = Luminescence Cell-Based Dose Response HTS to Identify Inhibitors of 5'UTR Stem-Loop Driven Prion Protein mRNA Translation in H4 Neuroglioblastoma Cells. [Related pubchem assays: 1827 (Project Summary), 1813 (Primary HTS)]; type: functional
[3] = alpha-synuclein stem-loop luciferase translation blockers – H4 neuroglioma cells, luminescence, confirmation (AID 1988); type: functional, cell-based
[4] = toxicity toward HepG2 liver cells – cell-based, plate reader, cherry-pick, antagonist series, cytotoxicity control, dose response (AID 743416); type: functional
[5] = blockers of bursicon-stimulated LGR2 cAMP reporter – cell-based, HEK293, CRE-luciferase reporter, cherry pick, set 2, dose response (AID 743343); type: functional;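 also: transfected cells were stimulated with diluted bursicon conditioned medium after compound addition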
[6] = blockade of melanocortin 4 receptor signaling – cell-based, plate reader, cherry pick, counter-screen for LGR2 antagonist project, dose response (AID 743444); type: functional;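 also: transfected HEK 293 cells stimulated with alpha-MSH peptide; potency of inhibitors of the alpha-MSH evoked signal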
Beta-galactosidase = Beta-galactosidase (Escherichia coli, UniProt Q8VNN2); assay: Dose response counterscreen for EBI2 assay utilizing the enzyme, b-galactosidase.; type: functional
Chain of Beta-galactosidase (Q8VNN2 whole entry, the tested form may be a part): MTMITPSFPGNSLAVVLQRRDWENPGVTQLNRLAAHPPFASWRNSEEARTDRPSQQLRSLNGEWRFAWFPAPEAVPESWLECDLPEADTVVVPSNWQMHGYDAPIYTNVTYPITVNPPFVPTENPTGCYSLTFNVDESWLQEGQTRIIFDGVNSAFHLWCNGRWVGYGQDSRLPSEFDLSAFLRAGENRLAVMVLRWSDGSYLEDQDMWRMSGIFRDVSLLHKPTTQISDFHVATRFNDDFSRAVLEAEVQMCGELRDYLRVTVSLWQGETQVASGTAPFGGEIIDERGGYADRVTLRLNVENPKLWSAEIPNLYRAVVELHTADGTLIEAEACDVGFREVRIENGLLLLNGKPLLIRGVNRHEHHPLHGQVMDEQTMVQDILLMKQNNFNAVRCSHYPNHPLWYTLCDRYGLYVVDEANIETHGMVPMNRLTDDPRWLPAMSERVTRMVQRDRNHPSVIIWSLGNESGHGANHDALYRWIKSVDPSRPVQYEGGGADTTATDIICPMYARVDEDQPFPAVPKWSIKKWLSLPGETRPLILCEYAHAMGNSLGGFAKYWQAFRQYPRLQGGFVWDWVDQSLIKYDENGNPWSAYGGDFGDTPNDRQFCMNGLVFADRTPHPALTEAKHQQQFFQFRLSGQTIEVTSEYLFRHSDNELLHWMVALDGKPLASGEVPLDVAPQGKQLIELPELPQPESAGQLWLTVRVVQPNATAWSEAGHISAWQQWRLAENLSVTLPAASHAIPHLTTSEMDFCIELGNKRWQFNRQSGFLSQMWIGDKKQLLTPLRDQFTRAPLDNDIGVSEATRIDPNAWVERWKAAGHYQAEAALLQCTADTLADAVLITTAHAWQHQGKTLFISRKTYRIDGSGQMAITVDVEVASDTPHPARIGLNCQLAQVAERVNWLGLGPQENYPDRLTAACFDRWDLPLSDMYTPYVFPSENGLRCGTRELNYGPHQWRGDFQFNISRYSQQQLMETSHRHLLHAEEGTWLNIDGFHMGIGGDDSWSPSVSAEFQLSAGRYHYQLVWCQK

[7] = blockers of HIV-1 envelope-mediated cell-cell fusion – cherry-pick, dose response (AID 652057); type: functional, cell-based
[8] = blockers of HIV-1 ZM109 envelope-driven cell-cell fusion – HeLa effector, CEM target cells, luciferase, cherry-pick, dose response (AID 652058); type: functional, cell-based;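 also: luciferase signal from HIV-1 Env mediated cell-cell fusion of effector and target cells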
Paired box protein Pax-8 = Paired box protein Pax-8 (Homo sapiens, UniProt Q06710); assay: PAX8 transcriptional activity inhibition in RMG-I – RMG-I cells, luciferase, cherry-pick, dose response (AID 687027); type: functional, cell-based;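 also: luciferase reporter driven by Pax8 target thyroperoxidase promoter measured by SteadyGlo luminescence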
Chain of Paired box protein Pax-8 (Q06710 whole entry, the tested form may be a part): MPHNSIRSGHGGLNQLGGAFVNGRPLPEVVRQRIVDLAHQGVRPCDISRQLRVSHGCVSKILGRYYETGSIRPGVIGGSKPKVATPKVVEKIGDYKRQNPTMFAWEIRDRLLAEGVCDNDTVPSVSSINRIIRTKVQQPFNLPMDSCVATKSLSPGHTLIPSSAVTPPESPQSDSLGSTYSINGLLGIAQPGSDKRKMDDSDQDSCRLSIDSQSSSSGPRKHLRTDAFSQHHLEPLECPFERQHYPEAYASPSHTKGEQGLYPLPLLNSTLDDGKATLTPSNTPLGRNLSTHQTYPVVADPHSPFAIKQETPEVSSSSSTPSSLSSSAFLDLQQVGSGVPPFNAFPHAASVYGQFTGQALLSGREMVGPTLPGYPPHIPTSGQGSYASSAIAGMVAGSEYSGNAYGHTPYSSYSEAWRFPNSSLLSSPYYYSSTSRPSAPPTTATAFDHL

[9] = HIV-1 AD8 envelope cell-cell fusion blockers – cherry-pick, dose response (AID 652062); type: functional, cell-based;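 also: luciferase signal from cell-cell fusion driven by HIV-1 clade B AD8 Env; potency is for inhibitors of fusion seen as a drop in luminescence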
[10] = growth inhibition of yeast DHODH-expressing 3D7 parasites – SYBR Green, dry powder samples, dose response (AID 1159570); type: functional, cell-based;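 also: parasite growth measured after 72 hours of compound exposure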
[11] = toxicity to human HepG2 hepatoma cells – cell-based, plate reader, dry powder samples, cytotoxicity control, dose response (AID 1159569); type: functional;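 also: inhibitor potency with signal falling toward the positive control level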
[12] = P. falciparum Dd2 growth inhibitors, dose response, SYBR Green, cherry-picked samples (AID 1159567); type: functional, cell-based
[13] = Dd2 malaria parasite growth inhibition potency – SYBR Green, dry powder samples, dose response (AID 1159566); type: functional, cell-based;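 also: potency for growth inhibition with lower SYBR green DNA signal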
[14] = growth inhibition of PfATP4-mutant resistant parasites – NITD609-resistant line, SYBR Green, dry powder, dose response (AID 1159571); type: functional, cell-based;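 also: parasites synchronized at ring stage by sorbitol before testing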
[15] = A549 cell cytotoxicity, dose response, cytotoxicity control, plate reader, cherry-pick, antagonist series (AID 743412); type: functional, cell-based
[16] = toxicity to human hepatoma HepG2 cells – cell-based, cherry-picked samples, cytotoxicity control, dose response (AID 1159577); type: functional

SMILES | AC50 [10] | AC50 [11] | AC50 [12] | AC50 [13] | AC50 [14] | further results
C=CCN1CCN(C(=O)CCCc2ccccc2)CC1 |  |  |  |  |  | EC50 [1]: 7.4 µM (inconclusive); EC50 [2]: 6.53 µM (active); EC50 [3]: 3.79 µM (active); AC50 [4]: > 52 µM (inactive); AC50 [5]: 5.97 µM (active); AC50 [6]: 8.87 µM (active)
CCN1CCN(C(=O)/C=C/c2ccc(C(C)C)cc2)CC1 |  |  |  |  |  | IC50 (Beta-galactosidase): > 80 µM (inactive)
C[C@H](CO)N1C[C@H](C)[C@@H](CN(C)C(=O)Nc2ccc(F)cc2)OCc2ccccc2-c2c(n(C)c3ccccc23)C1=O | 0.662 µM (active) | 46.8 µM (active) | 0.907 µM (active) | 0.348 µM (active) | 0.397 µM (active) | AC50 [7]: < 0.26 µM (active); AC50 [8]: < 0.26 µM (active); AC50 (Paired box protein Pax-8): 24.6 µM (active); AC50 [9]: < 0.26 µM (active)
CO[C@@H]1CN(C)C(=O)c2cc(NC(C)=O)ccc2OC[C@@H](C)N(Cc2ccc(F)cc2)C[C@@H]1C |  |  |  |  |  | AC50 [15]: > 47 µM (inactive); AC50 [5]: 42.9 µM (active); AC50 [6]: 10.7 µM (active)
N#Cc1ccc(-c2ccc([C@H]3[C@@H]4CN(C(=O)C5CCCCC5)C[C@H]3N4)cc2)cc1 | 3.78 µM (active) | 42.9 µM (active) | 2.2 µM (active) | 3.47 µM (active) | 4.16 µM (active) | AC50 [16]: 24.1 µM (active)
COc1ccc2c3c([nH]c2c1)[C@H](CO)N(C(=O)Nc1ccc(F)cc1)CC31CCN(S(=O)(=O)c2ccccc2)CC1 | 2.14 µM (active) | 48.9 µM (active) | 0.909 µM (active) | 1.3 µM (active) | 0.417 µM (active) | 
C[C@H]1CN([C@@H](C)CO)C(=O)c2c(c3ccccc3n2C)-c2ccccc2CO[C@H]1CN(C)S(=O)(=O)c1ccc(Cl)cc1 | 0.134 µM (active) | 41.2 µM (active) | 0.396 µM (active) | 0.108 µM (active) | 0.154 µM (active) | 
